Source: patent US7566808B2, “Management of ophthalmologic disorders, including macular degeneration” (President and Fellows of Harvard College, priority 2004, dated 2009)

How the values were obtained:
Sprague Dawley rats = settings: reference [24]; cited from earlier work
Abca4−/− mice = assay: A2E accumulation after chronic treatment of Abca4−/− mice; assay type: in vivo; settings: 50 mg/kg i.p. twice a week for 2 months
Description: Tissue extraction and HPLC analysis: Posterior eye cups were pooled and homogenized in PBS using a tissue grinder. An equal volume of a mixture of chloroform/methanol (2:1) was added and the sample was extracted three times. To remove insoluble material, extracts were filtered through cotton and passed through a reversed phase (C18 Sep-Pak, Millipore) cartridge with 0.1% TFA in methanol. After removing solvent by evaporation under gas, the extract was dissolved in methanol containing 0.1% TFA, for HPLC analysis. For quantification of A2E, a Waters Alliance 2695 HPLC was employed with a Atlantis® dC18 column (Waters, 4.6×150 mm, 3 μm) and the following gradient of acetonitrile in water (containing 0.1% trifluoroacetic acid): 90-100% (0-10 min), 100% acetonitrile (10-20 min), and a flow rate of 0.8 mL/min with monitoring at 430 nm. The injection volume was 10 μL. […] Levels of A2E and iso-A2E were determined by reference to an external standard of HPLC-purified A2E/iso-A2E. […]
As shown in FIGS. 29A-D, both compounds, but especially TDT, were highly efficient in lowering A2E accumulation. FIGS. 29A-D show quantitation of A2E and iso-A2E in eye cups of Abcr −/− mice. […] FIG>29D: A2E/iso-A2E quantitation from integrated peak areas normalized to external standards. Values expressed as picomoles per eye and are based on single samples obtained by pooling 4 eyes.

purified bovine mRPE65 = molecular target: T1, purified bovine mRPE65 (Bos taurus, UniProt Q28175); assay: Fluorescence titration of mRPE65 with TDT and TDH; settings: 0.952 μM mRPE65, phosphate buffered saline pH 7.4, 1% CHAPS; read-out: KD for binding to mRPE65
T1 construct: mRPE65 was extracted and purified from the bovine eye cups using a procedure described earlier; tissue W. L. Lawson Co; host or cells: bovine eye cups (retinal pigment epithelium)
Description: Purification of mRPE65: mRPE65 was extracted and purified from the bovine eye cups using a procedure described earlier. Protein purity was established by silver staining and Western blotting (1:4000 primary antibody—1 h at room temperature and 1:4000 secondary antibody 0.5 h at room temperature). Buffers were changed by dialysis in the request buffer overnight in a slide-a-lyser™ cassette from Pierce (10 KDa MWCO). RPE65 solutions were concentrated with an Amicon Ultra™ centrifugal filtration device (30 KDa-cutoff) from Millipore Corp. The final protein solution contained 100 mM phosphate buffered saline (150 mM NaCl) pH 7.4 and 1% CHAPSO. The protein concentration was measured by a modified Lowry method using the Bio-Rad DC protein assay protocol.
Fluorescence binding assays: RPE65 in PBS, 1% CHAPS, pH 7.4 was used in the fluorometric titration studies. All titrations were performed at 25° C. The samples in PBS buffer were excited at 280 nm and the fluorescence was scanned from 300 to 500 nm. Fluorescence measurements, using 450 μL quartz cuvettes with a 0.5 cm path length, were made at 25° C. on a Jobin Yvon Instruments, Fluoromax 2 employing the right-angle detection method.
The fluorescence of the protein solution was measured after equilibrating it at 25° C. for 10 min. […] The binding constant (KD) was calculated from the fluorescence intensity as described before (17,19). […]

[1] = Tolerability in treated animals; assay type: in vivo; settings: even when administered every 48 h
Description: With respect to the pharmacology of the isoprenoid mRPE65 antagonists, it should be noted that the effects of both TDT and TDH are substantially more persistent than with 13-RA, probably because they are more hydrophobic than the retinoic acids. An increase in hydrophobicity tends to slow down rates of elimination of drugs.

T1 sequence (Q28175 whole entry): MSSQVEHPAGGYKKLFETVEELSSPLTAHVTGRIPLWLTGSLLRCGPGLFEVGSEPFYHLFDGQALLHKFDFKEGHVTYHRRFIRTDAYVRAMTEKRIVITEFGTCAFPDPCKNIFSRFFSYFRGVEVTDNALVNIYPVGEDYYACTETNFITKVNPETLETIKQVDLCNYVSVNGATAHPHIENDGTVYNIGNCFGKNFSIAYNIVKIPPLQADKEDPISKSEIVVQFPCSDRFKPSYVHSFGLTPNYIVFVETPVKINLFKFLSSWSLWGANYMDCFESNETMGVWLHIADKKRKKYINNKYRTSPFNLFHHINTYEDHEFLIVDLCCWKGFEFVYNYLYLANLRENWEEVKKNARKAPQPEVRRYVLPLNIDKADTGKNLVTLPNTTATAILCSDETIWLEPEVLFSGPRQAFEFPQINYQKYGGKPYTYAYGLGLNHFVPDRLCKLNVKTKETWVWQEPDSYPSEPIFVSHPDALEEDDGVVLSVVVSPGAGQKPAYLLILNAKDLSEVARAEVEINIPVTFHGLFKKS

Row | Kd (purified bovine mRPE65) [nM] | SMILES | inhibition of 11-cis-retinal regeneration after bleaching (literature) (Sprague Dawley rats) | effect on A2E accumulation (Abca4−/− mice) | tolerability / signs of toxicity [1]
1 | – | CC1=C(/C=C/C(C)=C/C=C/C(C)=C\C(=O)O)C(C)(C)CCC1 [13-cis-retinoic acid, reference compound] | approximately 4 fold | – | –
2 | 58 ± 5 | CCCCCCCCCCC(=O)/C=C(\C)CC/C=C(\C)CCC=C(C)C [TDT, 13,17,21-Trimethyl-docosa-12,16,20-trien-11-one] | – | profound effects on limiting A2E accumulation | no obvious signs of toxicity and/or distress
3 | 96 ± 14 | CCCCCCCCCCCCCCCCNC(=O)/C=C(\C)CC/C=C(\C)CCC=C(C)C [TDH, 3,7,11-Trimethyl-dodeca-2,6,10-trienoic acid hexadecylamide] | – | profound effects on limiting A2E accumulation | no obvious signs of toxicity and/or distress
